Data reported in US11613522B2, “Herbicidally active 3-phenylisoxazoline-5-carboxamides of tetrahydro- and dihydrofurancarboxamides” (BAYER AKTIENGESELLSCHAFT, priority 2017, dated 2023).

Experiments:
Format in all cases: in vivo
[1] = test system: Alopecurus myosuroides; assay: Pre-emergence herbicidal activity against ALOMY; conditions: dosage 80 g/ha, scored visually after about 3 weeks vs untreated controls
Text: (§1) 1. Pre-emergence herbicidal action against harmful plants and crop plant compatibility Seeds of monocotyledonous and dicotyledonous weed plants and crop plants are placed in plastic or wood fiber pots and covered with soil. The compounds of the invention, formulated in the form of wettable powders (WP) or as emulsion concentrates (EC), are then applied onto the surface of the covering soil as aqueous suspension or emulsion with addition of 0.5% additive at a water application rate of 600 l/ha (converted). After the treatment, the pots are placed in a greenhouse and kept under good growth conditions for the trial plants. After about 3 weeks, the effect of the preparations is scored visually in comparison with untreated controls as percentages. For example, 100% activity=the plants have died, 0% activity=like control plants. [table]

[2] = test system: Polygonum convolvulus; assay: Pre-emergence herbicidal activity against POLCO; conditions: dosage 80 g/ha, scored visually after about 3 weeks vs untreated controls
Text: as §1

[3] = test system: Stellaria media; assay: Pre-emergence herbicidal activity against STEME; conditions: dosage 80 g/ha, scored visually after about 3 weeks vs untreated controls
Text: as §1

[4] = test system: Viola tricolor; assay: Post-emergence herbicidal activity against VIOTR; conditions: dosage 320 g/ha, rated visually after about 3 weeks
Experimental: (§2) [table] Seeds of monocotyledonous and dicotyledonous weeds and crop plants are placed in sandy loam in plastic or wood-fiber pots, covered with soil and cultivated in a greenhouse under controlled growth conditions. 2 to 3 weeks after sowing, the test plants are treated at the one-leaf stage. The compounds of the invention, formulated in the form of wettable powders (WP) or as emulsion concentrates (EC), are then sprayed onto the green parts of the plants as aqueous suspension or emulsion with addition of 0.5% additive at a water application rate of 600 l/ha (converted). After the test plants had been kept in the greenhouse under optimum growth conditions for about 3 weeks, the activity of the preparations is rated visually in comparison to untreated controls. For example, 100% activity=the plants have died, 0% activity=like control plants.

[5] = test system: Abutilon theophrasti; assay: Post-emergence herbicidal activity against ABUTH; conditions: dosage 320 g/ha, rated visually after about 3 weeks
Experimental: as §2

[6] = test system: Hordeum murinum; assay: Post-emergence herbicidal activity against HORMU; conditions: dosage 320 g/ha, rated visually after about 3 weeks
Experimental: as §2

[7] = test system: Polygonum convolvulus; assay: Post-emergence herbicidal activity against POLCO; conditions: dosage 320 g/ha, rated visually after about 3 weeks
Experimental: as §2

[8] = test system: Stellaria media; assay: Post-emergence herbicidal activity against STEME; conditions: dosage 320 g/ha, rated visually after about 3 weeks
Experimental: as §2

[9] = test system: Setaria viridis; assay: Pre-emergence herbicidal activity against SETVI; conditions: dosage 80 g/ha, scored visually after about 3 weeks vs untreated controls
Text: as §1

[10] = test system: Pharbitis purpurea; assay: Post-emergence herbicidal activity against PHBPU; conditions: dosage 320 g/ha, rated visually after about 3 weeks
Experimental: as §2

[11] = test system: Alopecurus myosuroides; assay: Post-emergence herbicidal activity against ALOMY; conditions: dosage 320 g/ha, rated visually after about 3 weeks
Experimental: as §2

[12] = test system: Echinochloa crus-galli; assay: Pre-emergence herbicidal activity against ECHCG; conditions: dosage 80 g/ha, scored visually after about 3 weeks vs untreated controls
Text: as §1

[13] = test system: Amaranthus retroflexus; assay: Pre-emergence herbicidal activity against AMARE; conditions: dosage 80 g/ha, scored visually after about 3 weeks vs untreated controls
Text: as §1

[14] = test system: Veronica persica; assay: Post-emergence herbicidal activity against VERPE; conditions: dosage 320 g/ha, rated visually after about 3 weeks
Experimental: as §2

[15] = test system: Lolium rigidum; assay: Post-emergence herbicidal activity against LOLRI; conditions: dosage 320 g/ha, rated visually after about 3 weeks
Experimental: as §2

[16] = test system: Echinochloa crus-galli; assay: Post-emergence herbicidal activity against ECHCG; conditions: dosage 320 g/ha, rated visually after about 3 weeks
Experimental: as §2

[17] = test system: Avena fatua; assay: Post-emergence herbicidal activity against AVEFA; conditions: dosage 320 g/ha, rated visually after about 3 weeks
Experimental: as §2

[18] = test system: Setaria viridis; assay: Post-emergence herbicidal activity against SETVI; conditions: dosage 320 g/ha, rated visually after about 3 weeks
Experimental: as §2

[19] = test system: Hordeum murinum; assay: Pre-emergence herbicidal activity against HORMU; conditions: dosage 80 g/ha
Text: as §1

[20] = Pre-emergence herbicidal action against harmful plants (summary of the tables); conditions: 504 h, application rate of 0.08 kg of active substance or less per hectare, read-out: herbicidal action, pre-emergence treatment (very good activity)
Text: as §1, with “plants.” for “plants. [table]”
As shown by the results, compounds according to the invention such as, for example, the compounds No. I-02 and other compounds from the tables (I-05, I-10, I-11, I-12, I-13, I-14, I-15, I-16, I-17, I-18, I-19, I-20, I-21, I-22, I-23, I-24, I-25, I-26, I-27, I-28, I-29) have, when used for pre-emergence treatment, very good activity (80% to 100% herbicidal action) against harmful plants such as Abutilon theophrasti, Alopecurus myosuroides, Amaranthus retroflexus, Avena fatua, Cyperus esculentus, Echinochloa crus-galli, Hordeum murinum, Lolium rigidum, Pharbitis purpurea, Polygonum convolvulus, Setaria viridis, Stellaria media, Veronica persica and Viola tricolor at an application rate of 0.08 kg of active substance or less per hectare.

[21] = test system: Viola tricolor; assay: Pre-emergence herbicidal activity against VIOTR; conditions: dosage 80 g/ha, scored visually after about 3 weeks vs untreated controls
Text: as §1

[22] = test system: Avena fatua; assay: Pre-emergence herbicidal activity against AVEFA; conditions: dosage 80 g/ha, scored visually after about 3 weeks vs untreated controls
Text: as §1

[23] = test system: Veronica persica; assay: Pre-emergence herbicidal activity against VERPE; conditions: Veronica persica, 504 h, dosage 80 g/ha
Text: as §1

[24] = test system: Lolium rigidum; assay: Pre-emergence herbicidal activity against LOLRI; conditions: dosage 80 g/ha, scored visually after about 3 weeks vs untreated controls
Text: as §1

[25] = test system: Pharbitis purpurea; assay: Pre-emergence herbicidal activity against PHBPU; conditions: dosage 80 g/ha, scored visually after about 3 weeks vs untreated controls
Text: as §1

[26] = test system: Amaranthus retroflexus; assay: Post-emergence herbicidal activity against AMARE; conditions: dosage 320 g/ha, rated visually after about 3 weeks
Experimental: as §2

## C=C[C@]1(C(=O)N[C@@H]2CO[C@H](C(=O)NN(C)C)C2)CC(c2cc(F)cc(F)c2)=NO1 (mixture of isomers) [Example I-15, (5S)-3-(3,5-difluorophenyl)-N-[cis-5-(dimethylaminocarbamoyl)tetrahydrofuran-3-yl]-5-vinyl-4H-isoxazole-5-carboxamide]
[1]; Alopecurus myosuroides, 504 h
  pest or weed control at 80 g/ha: 100%
[2]; Fallopia convolvulus, 504 h
  pest or weed control at 80 g/ha: 100%
[3]; Stellaria media, 504 h
  pest or weed control at 80 g/ha: 100%
[4]; Viola tricolor, 504 h
  pest or weed control at 320 g/ha: 80%
[5]; Abutilon theophrasti, 504 h
  pest or weed control at 320 g/ha: 80%
[6]; Hordeum murinum, 504 h
  pest or weed control at 320 g/ha: 90%
[7]; Fallopia convolvulus, 504 h
  pest or weed control at 320 g/ha: 90%
[8]; Stellaria media, 504 h
  pest or weed control at 320 g/ha: 90%
[9]; Setaria viridis, 504 h
  pest or weed control at 80 g/ha: 100%
[10]; Ipomoea purpurea, 504 h
  pest or weed control at 320 g/ha: 80%
[11]; Alopecurus myosuroides, 504 h
  pest or weed control at 320 g/ha: 100%
[12]; Echinochloa crus-galli, 504 h
  pest or weed control at 80 g/ha: 90%
[13]; Amaranthus retroflexus, 504 h
  pest or weed control at 80 g/ha: 100%
[14]; Veronica persica, 504 h
  pest or weed control at 320 g/ha: 80%
[15]; Lolium rigidum, 504 h
  pest or weed control at 320 g/ha: 90%
[16]; Echinochloa crus-galli, 504 h
  pest or weed control at 320 g/ha: 90%
[17]; Avena fatua, 504 h
  pest or weed control at 320 g/ha: 100%
[18]; Setaria viridis, 504 h
  pest or weed control at 320 g/ha: 80%
[19]; Hordeum murinum, 504 h
  pest or weed control at 80 g/ha: 90%
[20]
  pest or weed control at 80 g/ha: 80 to 100%
[21]; Viola tricolor, 504 h
  pest or weed control at 80 g/ha: 100%
[22]; Avena fatua, 504 h, read-out: Pre-emergence herbicidal activity in % against AVEVA (AVEFA)
  pest or weed control at 80 g/ha: 90%
[23]
  pest or weed control at 80 g/ha: 100%
[24]; Lolium rigidum, 504 h
  pest or weed control at 80 g/ha: 100%

## C=C[C@]1(C(=O)N[C@@H]2CO[C@H](C(=O)NCCC(=O)OC)C2)CC(c2cc(F)cc(F)c2)=NO1 [Example I-20]
[1]
  Pre-emergence herbicidal activity in % against ALOMY: 100%
[2]
  Pre-emergence herbicidal activity in % against POLCO: 100%
[3]
  Pre-emergence herbicidal activity in % against STEME: 100%
[4]
  Post-emergence herbicidal activity in % against VIOTR: 80%
[5]
  Post-emergence herbicidal activity in % against ABUTH: 80%
[6]
  Post-emergence herbicidal activity in % against HORMU: 100%
[7]
  Post-emergence herbicidal activity in % against POLCO: 80%
[8]
  Post-emergence herbicidal activity in % against STEME: 80%
[9]
  Pre-emergence herbicidal activity in % against SETVI: 100%
[10]
  Post-emergence herbicidal activity in % against PHBPU: 90%
[11]
  Post-emergence herbicidal activity in % against ALOMY: 100%
[12]
  Pre-emergence herbicidal activity in % against ECHCG: 100%
[13]
  Pre-emergence herbicidal activity in % against AMARE: 100%
[14]
  Post-emergence herbicidal activity in % against VERPE: 80%
[15]
  Post-emergence herbicidal activity in % against LOLRI: 100%
[16]
  Post-emergence herbicidal activity in % against ECHCG: 100%
[17]
  Post-emergence herbicidal activity in % against AVEFA: 100%
[18]
  Post-emergence herbicidal activity in % against SETVI: 90%
[19]
  Pre-emergence herbicidal activity in % against HORMU: 100%
[25]
  Pre-emergence herbicidal activity in % against PHBPU: 80%
[21]
  Pre-emergence herbicidal activity in % against VIOTR: 100%
[22]
  Pre-emergence herbicidal activity in % against AVEVA (AVEFA): 100%
[24]
  Pre-emergence herbicidal activity in % against LOLRI: 100%
[26]
  Post-emergence herbicidal activity in % against AMARE: 90%
